Reference: article PMC9269301, “Phytochemical Analysis, Antioxidant, Antimicrobial, and Cytotoxic Activity of Different Extracts of Xanthoparmelia stenophylla Lichen from Stara Planina, Serbia” (Plants, 2022)
Marks after values point to notes of the source that are not given here.

Experiments:
[1] = Hydroxyl radical scavenging activity (2-deoxyribose); type: biochemical; settings: mean ± SD, triplicate
Procedure: All chemicals for the antioxidant activity test were purchased from Sigma Aldrich. All measurements were conducted in triplicate, and a Shimadzu UV-1800 spectrophotometer was used for all measurements during antioxidant activity experiments. The IC50 value was used for comparing different radical scavenging effects between investigated extracts, isolated compounds, and positive controls. The ability to inhibit non-site-specific peroxidation mediated by hydroxyl radicals for […], and XSH was determined using the method previously described in the literature. During the experiment, in a reaction mixture that contained 500 μL of 5.6 mM 2-deoxy-D-ribose in KH2PO4-NaOH buffer (50 mM, pH 7.4), 100 μL of 1.0 mM aqueous ascorbic acid, 100 μL of 1.0 mM H2O2, and 200 μL of premixed solution of 100 μM FeCl3 and […] EDTA (1:1 v/v), 100 μL of extract dissolved in water was added. The tubes were vigorously shaken, vortexed, and incubated for 30 min at 50 °C. […] The mixture was vortexed again and heated in a water bath for 30 min at 50 °C. […] Ac stands for absorbance of the control (which contains all reagents, except the tested extract or compound), and As is the absorbance of the sample.

[2] = Superoxide anion radical scavenging activity (NBT/NADH/PMS); type: biochemical; settings: mean ± SD, triplicate
Procedure: All chemicals for the antioxidant activity test were purchased from Sigma Aldrich. All measurements were conducted in triplicate, and a Shimadzu UV-1800 spectrophotometer was used for all measurements during antioxidant activity experiments. The IC50 value was used for comparing different radical scavenging effects between investigated extracts, isolated compounds, and positive controls. […] [75] with modifications. […] To initiate the reaction, 0.1 mL of phenazine methosulfate (PMS) solution ([…] in 0.1 M phosphate buffer at pH 7.4) was added to each tube. The mixture was incubated at room temperature for 5 min, and then the absorbance was measured at 560 nm relative to the blank. Ascorbic acid, gallic acid, and Trolox were used as positive controls, and a decrease in absorbance indicated increased superoxide anion radical scavenging activity. […] Ac stands for absorbance of the control (which contains all reagents, except the tested extract or compound), and As is the absorbance of the sample.

A. niger ATCC 16888 = test: Microdilution with resazurin, antifungal; type: cell-based, Aspergillus niger; settings: extracts and usnic acid
Procedure: The tested methanol, acetone, and n-hexane extracts, as well as the component (usnic acid) of X. stenophylla, were dissolved in 10% dimethyl sulfoxide (DMSO) and then diluted into the nutrient liquid medium. DMSO was obtained from Acros Organics (Fair Lawn, NJ, USA). Resazurin was obtained from Alfa Aesar GmbH & Co. (KG, Karlsruhe, Germany).
The antimicrobial activity of the extracts and components was tested against 19 microorganisms. The experiment involved 15 strains of bacteria (i.e., 6 standard strains: Staphylococcus aureus ATCC 6538, Bacillus subtilis ATCC 6633, Proteus mirabilis ATCC 12453, Pseudomonas aeruginosa ATCC 27853, Klebsiella pneumoniae ATCC 70063, and Escherichia coli ATCC 25922; 9 isolates: Staphylococcus aureus, Escherichia coli, Salmonella enterica, Salmonella Typhimurium, Proteus mirabilis, Klebsiella pneumoniae, Pseudomonas aeruginosa, Bacillus subtilis, and Bacillus cereus). In addition, four fungal strains (i.e., two standard strains: Candida albicans ATCC 10231 and Aspergillus niger ATCC 16888; two isolates: Saccharomyces cerevisiae and Candida albicans) were tested. All isolates were a generous gift from the Institute of Public Health, Kragujevac. The other microorganisms were provided from the collection held by the Microbiology Laboratory Faculty of Science, University of Kragujevac.
The bacterial suspensions were prepared by the direct colony method. The turbidity of the initial suspension was adjusted using a densitometer (DEN-1, BioSan, Riga, Latvia). When adjusted to the turbidity of the 0.5 McFarland’s standard (Andrews, 2005) the bacteria suspension contained approximately 10^8 colony-forming units (CFU)/mL, and the suspension of yeast contained 10^6 CFU/mL; 1:100 dilutions of the initial suspension were additionally prepared in sterile 0.85% saline. The suspensions of fungal spores were prepared by gentle stripping of spores from slopes with growing mycelia. The resulting suspensions were 1:1000 diluted in sterile 0.85% saline.
Antimicrobial activity was tested by determining the minimum inhibitory concentrations (MICs) and minimum microbicidal concentrations (MBCs) using the microdilution plate method with resazurin [56]. The 96-well plates were prepared by dispensing 100 μL of Mueller–Hinton broth for bacteria and Sabouard broth for fungi into each well. A 10 μL aliquot from the stock solution of the tested extract or component was added to the first row of the plate. Then, two-fold serial dilutions were performed using a multichannel pipette. The obtained concentration range was from 10 to 0.08 mg/mL. The method is described in detail in [76].
Each test included growth control and sterility control.
Minimum microbicidal concentrations were determined by plating 10 μL of samples from wells where no indicator color change or no mycelia growth was recorded on a nutrient agar medium. At the end of the incubation period, the lowest concentration with no growth (no colony) was defined as the minimum microbicidal concentration.

P. aeruginosa biofilm = test: Biofilm metabolic activity by resazurin; type: cell-based, Pseudomonas aeruginosa; settings: Figure 3
Procedure: Resazurin (7-hydroxy-3H-phenoxazin-3-one-10-oxide) is a viability dye used to assess the metabolic activity of biofilms. After incubation at 37 °C/48 h, a volume of 10 µL of resazurin indicator solution was added to each well. Plates were incubated in the dark for 3 h at 37 °C. The OD was measured at 590 nm using an enzyme-linked immunosorbent assay (ELISA) plate reader. In addition, the color change from purple to pink indicated the metabolic activity of the formed biofilm.

usnic acid
Hydroxyl Radical Scavenging Activity (IC50) [1]: 120.05 ± 0.85 ^a,b,c,d µg/mL
Superoxide Anion Radical Scavenging Activity (IC50) [2]: 90.32 ± 0.95 ^a,b,c,d µg/mL
MFC (A. niger ATCC 16888): <10000 µg/mL
MIC (A. niger ATCC 16888): 10000 µg/mL
Metabolic activity of biofilm compared to the growth control (P. aeruginosa biofilm): higher
